Experimental data taken from patent US20220034873A1, “POLYMERIC CHROMOPHORES, COMPOSITIONS COMPRISING THE SAME, AND METHODS OF PREPARING AND USING THE SAME” (North Carolina State University, priority 2018, published 2022).

Experiments:
[1] = Absorption and emission spectra of dyes D1-D3 and dye-loaded copolymers F1-F3; format: physicochemical
Text: Measurements of Absorption and Emission Spectra. The target dye-loaded copolymers F1-F3 were then subjected to investigations of their spectroscopic properties in both organic solvents and aqueous solution. […] Attaching to the 120-kDa amphiphilic copolymer drastically enhances the water solubility of BODIPY D1 and chlorin D2 without strong perturbation on the spectroscopic properties. The emission band for F1 and F2 in water remains the same as the ones measured in organic solutions, showing minimal dye-dye interaction is involved in aqueous solution of F1 and F2 at μM concentration. […] This negative result may be because of the inappropriate size of the copolymer backbone. Larger polymers may be required to encapsulate large hydrophobic chromophores like the phthalocyanine D3.
General Methods. All chemicals obtained commercially were used as received unless otherwise noted. Reagent-grade solvents (CH2Cl2, THF, methanol) and HPLC-grade water were used as received. NMR data was measured in a solution of CDCl3 unless otherwise noted. Noncommercial compounds 1, 2, and 4 were prepared following literature procedures. Analytical SEC experiments were performed with PLgel 10000 Å SEC column, eluted with ACS grade THF (stablized with 400 ppm of BHT) at 35° C. with a flow rate at 1 mL/min. Samples were detected with Agilent 1260 infinity refractive index detector. Absorption spectra were measured on Agilent 8453 and Shimadzu UV1800 instruments using dilute […] solutions of the compound in UV transparent (e.g., quartz) cuvettes versus a solvent blank at room temperature.

[2] = cited from earlier work

## Cc1cc(C)c(C2=C3C=CC=[N+]3[B-](F)(F)n3cc(C#CCCCCC(=O)NN)cc32)c(C)c1 [Polymer D1, 2-[6-(N-Aminocarbamoyl)hex-1-yn-1-yl]-8-mesityl-4,4-difluoro-4-bora-3a,4a-diaza-s-indacene]
[1]; in CH2Cl2, room temperature
  λabs max: 543 nm

## Cc1cc(C)c(-c2c3nc(c(-c4ccc(C(=O)NN)cc4)c4ccc(cc5nc(cc6ccc2[nH]6)CC5(C)C)[nH]4)C=C3)c(C)c1 [Polymer D2, 5-[4-(N-Aminocarbamoyl)phenyl]-10-Mesityl-18,18-dimethylchlorin]
[1]; in CH2Cl2, room temperature
  λabs max: 640 nm

## CCCCCCCc1cc2c(cc1CCCCCCC)-c1nc-2nc2[nH]c(nc3nc(nc4[nH]c(n1)c1cc(CCCCCCC)c(CCCCCCC)cc41)-c1cc(C#Cc4ccc(CC(=O)NN)cc4)ccc1-3)c1cc(CCCCCCC)c(CCCCCCC)cc21 [Polymer D3, 2-[4-(N-Aminocarbamoyl)methylphenylethynyl]-9,10,16,17,23,24-hexaheptylphthalocyanine]
[1]; in toluene
  λabs max: 702 nm

## CCN(CC)c1ccc2c(c1)Oc1cc(N(CC)CC)ccc1C21c2ccccc2C(=O)N1N [Rhodamine-B hydrazide]
[2]; only with Cu(II) and Hg(II) among the cations tested, aqueous solution
  change in absorption or fluorescence spectra: significant change in absorption or fluorescence spectra
[2]; selective detection of Cu(II) in aqueous solution
  Cu(II) concentration detected quantitatively: 10^−7 M
